Patent publication US20250334536A1, “MODIFIED OXID[…] ITS APPLICATION” (National Yang Ming Chiao Tung University, priority 2024, published 2025)
Read-outs that look alike come from different tables or passages of the source.

Legend:
[1] = system: nanoparticle composition (enzyme nanoparticles of modified glucose oxidase of the first type crosslinked with glutaraldehyde)
Description: Deionized water solutions with varying pH values are then prepared, into which horseradish peroxidase (HRP, 0.4 μg/mL) and ABTS (2.5 mM) are added, followed by addition of the nanoparticle composition (0.1 μg/mL). 1 mL of the resulting mixture is placed in a UV-Vis spectrophotometer (model V670, JASCO), and the detection wavelength is set to 740 nm, corresponding to the characteristic absorption wavelength of ABTS^+·. Subsequently, glucose is added, and the time-dependent absorbance is measured. Using the standard calibration curve of ABTS^+· and the slope of the reaction rate, the time-dependent concentration of ABTS^+· is calculated. Enzyme kinetic parameters are then determined based on the Michaelis-Menten model, with further analysis performed using the Lineweaver-Burk model to evaluate the steady-state enzymatic behavior of the nanoparticle composition under different pH conditions.

[2] = system: glucose oxidase nanoparticles; details: comparison value; cited from earlier work
[3] = system: nanoparticle composition (enzyme nanoparticles of modified glucose oxidase of the first type crosslinked with glutaraldehyde); remark: listed apart in the source
Description: Ethanol is then gradually added (5 μl each time) until the solution becomes turbid. Glutaraldehyde is added, and the mixture is stirred at room temperature for 1.5 hours. After the reaction, the formed nanoparticles are collected by centrifugation (12,000 g, 15 minutes). The collected precipitate is resuspended in a mixture of ethanol and deionized water, followed by centrifugation under the same conditions. Subsequently, the nanoparticles are washed twice by centrifugation under the same conditions using ultrapure water. Finally, the precipitate is resuspended in deionized water and stored at 4° C. until use.
Subsequently, the catalytic efficiency of the nanoparticle composition is investigated using the 2,2′-azino-bis(3-ethylbenzothiazoline-6-sulfonic acid) (ABTS) assay. […] The generated H2O2 then reacts with HRP to oxidize the colorless ABTS into the green ABTS radical cation (ABTS^+·), enabling colorimetric analysis of enzyme activity.

[4] = system: nanoparticle composition (enzyme nanoparticles of modified glucose oxidase of the first type crosslinked with glutaraldehyde); details: 35° C.
Description: Subsequently, an enzyme reaction solution containing the nanoparticle composition (concentration: 0.1 μg/mL), HRP (concentration: 0.4 μg/mL), and ABTS (concentration: 2.5 mM) is prepared. A volume of 400 μL of the reaction solution is transferred to a J-815 circular dichroism spectrometer for subsequent measurements, and a circulating constant-temperature water bath is activated to regulate the temperature to the desired setting. […] The change in absorbance over time is then recorded. Using the standard calibration curve of ABTS^+· and the rate of absorbance change, the corresponding concentration change of ABTS^+· is calculated. Based on the Michaelis-Menten kinetic model, various enzyme kinetic parameters are derived to evaluate the catalytic efficiency and stability of the nanoparticle composition under different temperature conditions.

[5] = nanoparticle composition, substrate glucose

OC[C@H]1OC(O)[C@H](O)[C@@H](O)[C@@H]1O (some centres unmarked) [glucose]
Kcat/KM ([1]; pH 5): 5000 s⁻¹ M⁻¹
Kcat/KM ([1]; pH 7): approximately 4.8×10^4 s^−1·M^−1
Kcat/KM ([1]; pH 9): 10000 s⁻¹ M⁻¹
catalytic efficiency (Kcat/KM) [2]: 676 M⁻¹ s⁻¹
catalytic efficiency (Kcat/KM), times higher than that of glucose oxidase nanoparticles ([3]; nanoparticle composition vs glucose oxidase nanoparticles (676 M^−1·s^−1)): approximately 66 times
increase of catalytic efficiency (Kcat/KM) compared to modified glucose oxidase ([3]; nanoparticle composition vs modified glucose oxidase): more than 300%
Kcat [3, 5]: 421.87 s⁻¹
Kcat/KM [3, 5]: 45200 M⁻¹ s⁻¹
Km [3, 5]: 9.33 mM
VMax [3, 5]: 0.2646 μM^s − 1
Kcat/KM [4]: approximately 6.0×10^4 s^−1·M^−1
